Measured values published in patent US20090137492A1 (priority 2006, published 2009).
Values joined by “and” are separate entries in the source; they are usually repeats but may differ in a detail not shown here. Equal entries are not always repeated. “Also recorded” adds a separate entry of the source.

Experiments:
[1] = system: B. anthracis Sterne spores; set-up: species or system Mice of the A/J strain; details: mouse, in vivo
[2] = system: IL-1beta, IL-6, IL-10, TNF-alpha, Toll-Like Receptors (TLRs), NODs, SOCS; assay type: cell-based
[3] = mouse, in vivo
IL-6 = system: IL-6; set-up: species or system cotton rat; details: rat, in vivo
IL-1beta = assay type: cell-based
anthrax spores = system: anthrax spores; set-up: species or system murine (A/J mice); details: mouse, in vivo
[4] = system: H3N2/Wuhan influenza virus; set-up: species or system cotton rat; details: rat, in vivo
IL-10 = assay type: cell-based

Sar^9, Met(O2)^11-Substance P [Viprovex]
inhibition of lethality [1]: dose dependent inhibition of lethality | treated animals that died [1]: 2 of the 6 | elevation of components of the host immune system [2]: elevation of cytokines, interleukins, TLR, defensins and other components of immune surveillance; also recorded: elevate multiple components of the host immune system | toxicity [3]: no toxicity was observed | IL-6 levels in the lungs (IL-6): do not significantly increase | Il-6, single animals (IL-6): 1.623 and 1.253 and 2.458 and 2.167 and 3.013 and 0 and 2.416 and 7.483 and 1.791 | IL-1 mRNA increase relative to IL-6 increase (IL-1beta): 28 × | increase in survival rates (anthrax spores): 240% | protection against anthrax-induced death (anthrax spores): partially protect against anthrax-induced death | protection from death, time course (anthrax spores): clearly protected from death as early as 5 days post-exposure; also recorded: maintained survival from approximately day 10 onward | survival rate (anthrax spores): 68.8% and 62.5% | survival, of the animals that would otherwise have died (anthrax spores): 20-70% | efficacy against influenza virus infection [4]: provides therapeutic efficacy in animal models of infection by influenza virus; also recorded: more resistant to the effects of H3N2/Wuhan influenza virus | IL-10 mRNA increase relative to IL-6 increase (IL-10): 21 ×
